Experimental data from paper PMC5218480 (PLoS ONE, 2017).

System: MV-4-11 cells
Assay: Gene expression microarray analysis (Affymetrix PrimeView) and GSEA
Type: cell-based, human
Parameters: RFU PODN (11730768_x_at) / Fold change /veh PODN (11730768_x_at) / RFU LINC00158 (11744669_a_at) / Fold change /veh LINC00158 (11744669_a_at) / RFU DUSP10 (11751237_a_at) / Fold change /veh DUSP10 (11751237_a_at) / RFU ID3 (11757404_x_at) / Fold change /veh ID3 (11757404_x_at) / RFU PLEKHG5 (11737974_s_at) / Fold change /veh PLEKHG5 (11737974_s_at) / RFU LRRC4B (11730491_at) / Fold change /veh LRRC4B (11730491_at) / RFU GIMAP4 (11747438_a_at) / Fold change /veh GIMAP4 (11747438_a_at) / RFU KRT8 (11758183_x_at) / Fold change /veh KRT8 (11758183_x_at) / RFU CNN1 (11734310_a_at) / Fold change /veh CNN1 (11734310_a_at) / RFU VPS37D (11726825_at) / Fold change /veh VPS37D (11726825_at) / RFU C10orf10 (11716522_x_at) / Fold change /veh C10orf10 (11716522_x_at) / RFU KIR2DL2 /// KIR2DL4 /// KIR2DL5A /// KIR2DL5B /// KIR2DS1 /// KIR2DS2 /// KIR2DS3 /// KIR2DS4 /// KIR3DL3 /// KIR3DL3 /// KIR3DS1 (11738374_at) / Fold change /veh KIR2DL2 /// KIR2DL4 /// KIR2DL5A /// KIR2DL5B /// KIR2DS1 /// KIR2DS2 /// KIR2DS3 /// KIR2DS4 /// KIR3DL3 /// KIR3DL3 /// KIR3DS1 (11738374_at) / RFU C1QL1 (11718748_at) / Fold change /veh C1QL1 (11718748_at) / RFU TMPRSS4 (11747572_a_at) / Fold change /veh TMPRSS4 (11747572_a_at) / RFU HAMP (11756126_x_at) / Fold change /veh HAMP (11756126_x_at) / RFU RNFT2 (11725882_a_at) / Fold change /veh RNFT2 (11725882_a_at) / RFU NR4A2 (11747474_a_at) / Fold change /veh NR4A2 (11747474_a_at) / RFU ABCC12 (11746883_a_at) / Fold change /veh ABCC12 (11746883_a_at) / RFU TMEM136 (11760407_x_at) / Fold change /veh TMEM136 (11760407_x_at) / RFU CLDN22 /// WWC2 (11732394_at) / Fold change /veh CLDN22 /// WWC2 (11732394_at) / RFU HLA-DPB1 (11760878_x_at) / Fold change /veh HLA-DPB1 (11760878_x_at) / RFU SPINT1 (11716480_a_at) / Fold change /veh SPINT1 (11716480_a_at) / RFU GAP43 (11754022_s_at) / Fold change /veh GAP43 (11754022_s_at) / RFU A4GNT (11735810_at) / Fold change /veh A4GNT (11735810_at) / RFU PRB3 (11715151_x_at) / Fold change /veh PRB3 (11715151_x_at) / RFU TUBB4B (11761932_at) / Fold change /veh TUBB4B (11761932_at) / RFU CAPN14 (11732068_a_at) / Fold change /veh CAPN14 (11732068_a_at) / RFU TMCC2 (11721928_a_at) / Fold change /veh TMCC2 (11721928_a_at) / RFU IRGQ (11745062_a_at) / Fold change /veh IRGQ (11745062_a_at) / RFU FAM174B (11720279_a_at) / Fold change /veh FAM174B (11720279_a_at) / RFU TMPRSS4 (11748680_a_at) / Fold change /veh TMPRSS4 (11748680_a_at) / RFU FAM212B (11763350_a_at) / Fold change /veh FAM212B (11763350_a_at) / RFU PLEKHG5 (11743358_a_at) / Fold change /veh PLEKHG5 (11743358_a_at) / RFU ZSCAN30 (11745921_a_at) / Fold change /veh ZSCAN30 (11745921_a_at) / RFU CMKLR1 (11741424_a_at) / Fold change /veh CMKLR1 (11741424_a_at) / RFU LOC101060620 /// MAPK8IP1 (11723275_at) / Fold change /veh LOC101060620 /// MAPK8IP1 (11723275_at) / RFU SPTSSB (11747773_x_at) / Fold change /veh SPTSSB (11747773_x_at) / RFU PRSS12 (11739890_at) / Fold change /veh PRSS12 (11739890_at) / RFU BIN1 (11741810_x_at) / Fold change /veh BIN1 (11741810_x_at) / RFU WNT11 (11732464_a_at) / Fold change /veh WNT11 (11732464_a_at) / RFU C10orf10 (11716521_a_at) / Fold change /veh C10orf10 (11716521_a_at) / RFU C5orf56 (11738089_at) / Fold change /veh C5orf56 (11738089_at) / RFU CYB561 (11721691_x_at) / Fold change /veh CYB561 (11721691_x_at) / RFU ANKRD19P (11752326_a_at) / Fold change /veh ANKRD19P (11752326_a_at) / RFU OR2T12 /// OR2T33 /// OR2T8 (11738714_s_at) / Fold change /veh OR2T12 /// OR2T33 /// OR2T8 (11738714_s_at) / RFU VCAN (11748164_a_at) / Fold change /veh VCAN (11748164_a_at) / RFU JSRP1 (11732532_at) / Fold change /veh JSRP1 (11732532_at) / RFU KRTAP10-11 (11738290_x_at) / Fold change /veh KRTAP10-11 (11738290_x_at) / RFU MYO3A (11730013_a_at) / Fold change /veh MYO3A (11730013_a_at) / RFU EBF3 (11725865_a_at) / Fold change /veh EBF3 (11725865_a_at) / RFU CAMK2N1 (11719241_x_at) / Fold change /veh CAMK2N1 (11719241_x_at) / RFU C5orf56 (11738088_a_at) / Fold change /veh C5orf56 (11738088_a_at) / RFU OLFML3 (11715873_a_at) / Fold change /veh OLFML3 (11715873_a_at) / RFU LOC100653217 /// NTM (11731650_a_at) / Fold change /veh LOC100653217 /// NTM (11731650_a_at) / RFU MAPK11 (11762145_a_at) / Fold change /veh MAPK11 (11762145_a_at) / RFU FIZ1 (11724087_x_at) / Fold change /veh FIZ1 (11724087_x_at) / RFU OASL (11726364_x_at) / Fold change /veh OASL (11726364_x_at) / RFU SOX15 (11748057_x_at) / Fold change /veh SOX15 (11748057_x_at) / RFU CD79A (11719716_a_at) / Fold change /veh CD79A (11719716_a_at) / RFU HIST1H1D (11736915_at) / Fold change /veh HIST1H1D (11736915_at) / RFU CASKIN2 (11723855_a_at) / Fold change /veh CASKIN2 (11723855_a_at) / RFU LOC730098 (11760151_x_at) / Fold change /veh LOC730098 (11760151_x_at) / RFU OR4N2 (11742367_at) / Fold change /veh OR4N2 (11742367_at) / RFU PRRT2 (11749266_a_at) / Fold change /veh PRRT2 (11749266_a_at) / RFU SNX32 (11753110_a_at) / Fold change /veh SNX32 (11753110_a_at) / RFU CDHR5 (11726645_a_at) / Fold change /veh CDHR5 (11726645_a_at) / RFU RCAN1 (11760418_a_at) / Fold change /veh RCAN1 (11760418_a_at) / RFU FAM167A (11723789_a_at) / Fold change /veh FAM167A (11723789_a_at) / RFU FAM26E (11764081_at) / Fold change /veh FAM26E (11764081_at) / RFU ISYNA1 (11749810_s_at) / Fold change /veh ISYNA1 (11749810_s_at) / RFU ACY1 (11761880_at) / Fold change /veh ACY1 (11761880_at) / RFU 11764098_at / Fold change /veh 11764098_at / RFU SAMD14 (11745864_x_at) / Fold change /veh SAMD14 (11745864_x_at) / RFU NPB (11741838_a_at) / Fold change /veh NPB (11741838_a_at) / RFU TMPRSS6 (11731388_a_at) / Fold change /veh TMPRSS6 (11731388_a_at) / RFU KRTAP10-2 (11738614_at) / Fold change /veh KRTAP10-2 (11738614_at) / RFU ARHGAP8 /// PRR5-ARHGAP8 (11727945_x_at) / Fold change /veh ARHGAP8 /// PRR5-ARHGAP8 (11727945_x_at) / RFU KRTAP5-7 /// NADSYN1 (11734609_at) / Fold change /veh KRTAP5-7 /// NADSYN1 (11734609_at) / RFU RASL12 (11751679_a_at) / Fold change /veh RASL12 (11751679_a_at) / RFU CDKN2B (11736163_a_at) / Fold change /veh CDKN2B (11736163_a_at) / RFU PRF1 (11729649_at) / Fold change /veh PRF1 (11729649_at) / RFU, ZNF638 /// ZNF638-IT1 / Fold change vs veh, ZNF638 /// ZNF638-IT1 / RFU, PANK3 / Fold change vs veh, PANK3 / RFU, SH3YL1 / Fold change vs veh, SH3YL1 / RFU, ZEB2 / Fold change vs veh, ZEB2 / RFU, NRIP1 / Fold change vs veh, NRIP1 / RFU, PTTG1IP / Fold change vs veh, PTTG1IP / RFU, CAPN2 / Fold change vs veh, CAPN2 / RFU, MED14 / Fold change vs veh, MED14 / RFU, SNORA58 / Fold change vs veh, SNORA58 / RFU, C1orf63 / Fold change vs veh, C1orf63 / RFU, LRRFIP1 / Fold change vs veh, LRRFIP1 / RFU, NDUFAF7 / Fold change vs veh, NDUFAF7 / RFU, SLC12A2 / Fold change vs veh, SLC12A2 / RFU, IBTK / Fold change vs veh, IBTK / RFU, ESF1 / Fold change vs veh, ESF1 / Fold change vs veh, TMEM50B / RFU, TAOK1 / Fold change vs veh, TAOK1 / RFU, ACBD3 / Fold change vs veh, ACBD3 / RFU, TMA16 / Fold change vs veh, TMA16 / RFU, RWDD3 / Fold change vs veh, RWDD3 / RFU, BCAT1 / Fold change vs veh, BCAT1 / RFU, EDEM3 / Fold change vs veh, EDEM3 / RFU, TMEM33 / Fold change vs veh, TMEM33 / RFU, WDR75 / Fold change vs veh, WDR75 / RFU, AHCTF1 / Fold change vs veh, AHCTF1 / RFU, TFRC / Fold change vs veh, TFRC / RFU, ZDHHC17 / Fold change vs veh, ZDHHC17 / RFU, NOM1 / Fold change vs veh, NOM1 / RFU, ARL8B / Fold change vs veh, ARL8B / RFU, ZBTB11 / Fold change vs veh, ZBTB11 / RFU, TAMM41 / Fold change vs veh, TAMM41 / RFU, KIAA1704 /// LOC100996395 / Fold change vs veh, KIAA1704 /// LOC100996395 / RFU, ING1 / Fold change vs veh, ING1 / RFU, TRMT61B / Fold change vs veh, TRMT61B / RFU, FUBP3 / Fold change vs veh, FUBP3 / RFU, TP53 / Fold change vs veh, TP53 / RFU, TNKS2 / Fold change vs veh, TNKS2 / RFU, ZFP14 / Fold change vs veh, ZFP14 / RFU, ACTR2 / Fold change vs veh, ACTR2 / RFU, PPP3R1 / Fold change vs veh, PPP3R1 / RFU, PIK3R1 / Fold change vs veh, PIK3R1 / RFU, HNRNPA1 / Fold change vs veh, HNRNPA1 / RFU, RNF170 / Fold change vs veh, RNF170 / RFU, ZNF28 / Fold change vs veh, ZNF28 / RFU, RNGTT / Fold change vs veh, RNGTT / RFU, OGT / Fold change vs veh, OGT / RFU, BRD1 / Fold change vs veh, BRD1 / RFU, MARS / Fold change vs veh, MARS / RFU, ZNF655 / Fold change vs veh, ZNF655 / RFU, FAHD1 / Fold change vs veh, FAHD1 / RFU, BDP1 / Fold change vs veh, BDP1 / RFU, LRRCC1 / Fold change vs veh, LRRCC1 / RFU, ARID1A / Fold change vs veh, ARID1A / RFU, ZNF146 / Fold change vs veh, ZNF146 / RFU, ZNF330 / Fold change vs veh, ZNF330 / RFU, GPN3 / Fold change vs veh, GPN3 / RFU, C9orf123 / Fold change vs veh, C9orf123 / RFU, N4BP2L2 / Fold change vs veh, N4BP2L2 / RFU, ARFIP1 / Fold change vs veh, ARFIP1 / RFU, FAM179B / Fold change vs veh, FAM179B / RFU, BCL10 / Fold change vs veh, BCL10 / RFU, UHRF1BP1L / Fold change vs veh, UHRF1BP1L / RFU, BET1 / Fold change vs veh, BET1 / RFU, CNOT2 / Fold change vs veh, CNOT2 / RFU, ZNF268 / Fold change vs veh, ZNF268 / Fold change vs veh, ZNF507 / RFU, DGCR2 / Fold change vs veh, DGCR2 / RFU, WDSUB1 / Fold change vs veh, WDSUB1 / Fold change vs veh, HSP90B1 /// MIR3652 / RFU, ADSS / Fold change vs veh, ADSS / RFU, GK / Fold change vs veh, GK / RFU, ZNF148 / Fold change vs veh, ZNF148 / RFU, TAF9 / Fold change vs veh, TAF9 / RFU, SLC1A5 / Fold change vs veh, SLC1A5 / RFU, SLMO2 / Fold change vs veh, SLMO2 / RFU, ABCC4 / Fold change vs veh, ABCC4 / RFU, LOC101060439 /// RAP1B / Fold change vs veh, LOC101060439 /// RAP1B / RFU, RFX7 / Fold change vs veh, RFX7 / RFU, GTPBP10 / Fold change vs veh, GTPBP10 / RFU, CNEP1R1 / Fold change vs veh, CNEP1R1 / RFU, BIVM-ERCC5 /// ERCC5 / Fold change vs veh, BIVM-ERCC5 /// ERCC5 / RFU, ILF3 / Fold change vs veh, ILF3 / RFU 11762660_at / Fold change /veh 11762660_at / RFU VCAN (11757783_s_at) / Fold change /veh VCAN (11757783_s_at) / RFU DDX43 (11728927_at) / Fold change /veh DDX43 (11728927_at) / RFU KRT8 (11758188_x_at) / Fold change /veh KRT8 (11758188_x_at) / RFU NKD1 (11759106_at) / Fold change /veh NKD1 (11759106_at) / RFU SRD5A1 (11742802_a_at) / Fold change /veh SRD5A1 (11742802_a_at) / RFU TPSAB1 /// TPSB2 (11721975_s_at) / Fold change /veh TPSAB1 /// TPSB2 (11721975_s_at) / RFU GSTM3 (11746129_a_at) / Fold change /veh GSTM3 (11746129_a_at) / RFU IL23R (11737362_x_at) / Fold change /veh IL23R (11737362_x_at) / RFU TMEM51 (11727254_a_at) / Fold change /veh TMEM51 (11727254_a_at) / RFU PIWIL2 (11732686_x_at) / Fold change /veh PIWIL2 (11732686_x_at) / RFU ORM1 (11744905_x_at) / Fold change /veh ORM1 (11744905_x_at) / RFU CCDC152 (11743942_at) / Fold change /veh CCDC152 (11743942_at) / RFU ECM1 (11717891_a_at) / Fold change /veh ECM1 (11717891_a_at) / RFU IL23R (11748794_a_at) / Fold change /veh IL23R (11748794_a_at) / RFU TNFAIP8L3 (11732012_x_at) / Fold change /veh TNFAIP8L3 (11732012_x_at) / RFU MBOAT4 (11741988_at) / Fold change /veh MBOAT4 (11741988_at) / RFU 11764193_at / Fold change /veh 11764193_at / RFU TMEM53 (11763286_at) / Fold change /veh TMEM53 (11763286_at) / RFU MAGEB2 (11727129_at) / Fold change /veh MAGEB2 (11727129_at) / RFU TMEM200A (11744735_a_at) / Fold change /veh TMEM200A (11744735_a_at) / RFU CCDC152 (11751479_a_at) / Fold change /veh CCDC152 (11751479_a_at) / RFU FAM211A (11726209_a_at) / Fold change /veh FAM211A (11726209_a_at) / RFU RGS16 (11746705_a_at) / Fold change /veh RGS16 (11746705_a_at) / RFU VCAN (11755009_s_at) / Fold change /veh VCAN (11755009_s_at) / RFU RHOB (11743442_s_at) / Fold change /veh RHOB (11743442_s_at) / RFU RGS16 (11720943_a_at) / Fold change /veh RGS16 (11720943_a_at) / RFU RGS16 (11720944_at) / Fold change /veh RGS16 (11720944_at) / RFU, VPS4B / Fold change vs veh, VPS4B / RFU, CREB1 / Fold change vs veh, CREB1 / RFU, DNAJC13 / Fold change vs veh, DNAJC13 / RFU, GNAQ / Fold change vs veh, GNAQ / RFU, CDK5R1 / Fold change vs veh, CDK5R1 / RFU, ZRANB3 / Fold change vs veh, ZRANB3 / RFU, CUL4A / Fold change vs veh, CUL4A / RFU, CCNY / Fold change vs veh, CCNY / RFU, UFL1 / Fold change vs veh, UFL1 / RFU, COG3 / Fold change vs veh, COG3 / RFU, DIAPH2 / Fold change vs veh, DIAPH2 / RFU, SKA2 / Fold change vs veh, SKA2 / RFU, AFF3 / Fold change vs veh, AFF3 / RFU, LMF1 / Fold change vs veh, LMF1 / RFU, IPO11 / Fold change vs veh, IPO11 / RFU, DFFB / Fold change vs veh, DFFB / RFU, FOXP1 / Fold change vs veh, FOXP1 / RFU, CARD8 / Fold change vs veh, CARD8 / RFU, STRN3 / Fold change vs veh, STRN3 / RFU, ADK / Fold change vs veh, ADK / RFU, RASSF2 / Fold change vs veh, RASSF2 / RFU, WIPF1 / Fold change vs veh, WIPF1 / RFU, LARP1B / Fold change vs veh, LARP1B / RFU, RASA1 / Fold change vs veh, RASA1 / RFU, RB1 / Fold change vs veh, RB1 / RFU, PPFIA1 / Fold change vs veh, PPFIA1 / RFU, MAT2A / Fold change vs veh, MAT2A / RFU, CCT5 / Fold change vs veh, CCT5 / RFU, WDR92 / Fold change vs veh, WDR92 / RFU, CUX1 / Fold change vs veh, CUX1 / RFU, TTC7A / Fold change vs veh, TTC7A / RFU, TMEM135 / Fold change vs veh, TMEM135 / RFU, DEPTOR / Fold change vs veh, DEPTOR / RFU, CPM / Fold change vs veh, CPM / RFU, DNAJB6 / Fold change vs veh, DNAJB6 / RFU, CACNA2D3 / Fold change vs veh, CACNA2D3 / RFU, DTX4 / Fold change vs veh, DTX4 / RFU, TFCP2 / Fold change vs veh, TFCP2 / RFU, GMCL1 /// GMCL1P1 / Fold change vs veh, GMCL1 /// GMCL1P1 / RFU, AEBP2 / Fold change vs veh, AEBP2 / RFU, SNHG1 /// SNORD22 /// SNORD25 /// SNORD26 /// SNORD27 /// SNORD28 /// SNORD29 /// SNORD31 / Fold change vs veh, SNHG1 /// SNORD22 /// SNORD25 /// SNORD26 /// SNORD27 /// SNORD28 /// SNORD29 /// SNORD31 / Fold change (Aza/veh), C12orf56 (ProbeSet 11735607_a_at) / Fold change (ACY-1035/veh), C12orf56 (ProbeSet 11735607_a_at) / Fold change (Aza/veh), FGFR1OP (ProbeSet 11751329_s_at) / Fold change (ACY-1035/veh), FGFR1OP (ProbeSet 11751329_s_at) / Fold change (Aza/veh), VPS36 (ProbeSet 11739960_a_at) / Fold change (ACY-1035/veh), VPS36 (ProbeSet 11739960_a_at) / RFU SYPL1 (11715823_x_at) / Fold change /veh SYPL1 (11715823_x_at) / RFU IGFBP7 (11715501_s_at) / Fold change /veh IGFBP7 (11715501_s_at) / RFU REEP3 (11722064_at) / Fold change /veh REEP3 (11722064_at) / RFU IGLL1 (11728026_x_at) / Fold change /veh IGLL1 (11728026_x_at): dose or concentration left out as unconfirmed
Settings: MV-4-11 cells, 48 hours

Nc1ccc(-c2cccs2)cc1NC(=O)c1ccc2c(c1)cc(C1CC1)n2CCN1CCOCC1 [ACY-1035] was tested, and the “RFU FAM167A (11723789_a_at)” value was 37.08 RFU.
